Target: T1, Alpha-1A adrenergic receptor (Homo sapiens) (UniProt P35348)
T1 sequence (whole entry): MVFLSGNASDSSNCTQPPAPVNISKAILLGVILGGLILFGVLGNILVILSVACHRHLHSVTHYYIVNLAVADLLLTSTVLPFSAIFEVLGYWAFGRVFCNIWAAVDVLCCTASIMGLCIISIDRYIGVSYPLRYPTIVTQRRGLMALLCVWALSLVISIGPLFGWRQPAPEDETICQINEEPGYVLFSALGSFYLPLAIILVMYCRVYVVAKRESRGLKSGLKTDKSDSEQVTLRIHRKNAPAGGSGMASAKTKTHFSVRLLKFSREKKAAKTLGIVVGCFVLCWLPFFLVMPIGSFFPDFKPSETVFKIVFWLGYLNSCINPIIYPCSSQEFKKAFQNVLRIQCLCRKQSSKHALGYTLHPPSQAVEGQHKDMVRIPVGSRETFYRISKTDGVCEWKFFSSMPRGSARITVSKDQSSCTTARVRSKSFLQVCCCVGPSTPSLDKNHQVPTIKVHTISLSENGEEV
Conditions: Compound concentration 10.0 uM

In the case of `CCCOc1ccc([C@H]2[C@H](C(=O)O)[C@@H](c3ccc4c(c3)OCO4)CN2CC(=O)Nc2c(CC)cccc2CC)cc1` [A-192621], the inhibition is reported as -9.09%.

Reference: ChEMBL document CHEMBL4507261, “Data for DCP probe A-192621” (2021)
